{"source": "ChEMBL document CHEMBL2074326", "about": "(Proc Natl Acad Sci U S A, 2004)", "molecules": {"B1": {"name": "Solute carrier organic anion transporter family member 4C1 (Homo sapiens) (protein)", "chain": "MKSAKGIENLAFVPSSPDILRRLSASPSQIEVSALSSDPQRENSQPQELQKPQEPQKSPEPSLPSAPPNVSEEKLRSLSLSEFEEGSYGWRNFHPQCLQRCNTPGGFLLHYCLLAVTQGIVVNGLVNISISTVEKRYEMKSSLTGLISSSYDISFCLLSLFVSFFGERGHKPRWLAFAAFMIGLGALVFSLPQFFSGEYKLGSLFEDTCVTTRNSTSCTSSTSSLSNYLYVFILGQLLLGAGGTPLYTLGTAFLDDSVPTHKSSLYIGTGYAMSILGPAIGYVLGGQLLTIYIDVAMGESTDVTEDDPRWLGAWWIGFLLSWIFAWSLIIPFSCFPKHLPGTAEIQAGKTSQAHQSNSNADVKFGKSIKDFPAALKNLMKNAVFMCLVLSTSSEALITTGFATFLPKFIENQFGLTSSFAATLGGAVLIPGAALGQILGGFLVSKFRMTCKNTMKFALFTSGVALTLSFVFMYAKCENEPFAGVSESYNGTGELGNLIAPCNANCNCSRSYYYPVCGDGVQYFSPCFAGCSNPVAHRKPKVYYNCSCIERKTEITSTAETFGFEAKAGKCETHCAKLPIFLCIFFIVIIFTFMAGTPITVSILRCVNHRQRSLALGIQFMVLRLLGTIPGPIIFGFTIDSTCILWDINDCGIKGACWIYDNIKMAHMLVAISVTCKVITMFFNGFAIFLYKPPPSATDVSFHKENAVVTNVLAEQDLNKIVKEG"}}, "key": {"[1]": {"target": "T1, Solute carrier organic anion transporter family member 4C1 (Homo sapiens, UniProt Q6ZQN7)", "T1 sequence (Q6ZQN7 whole entry)": "B1 chain", "experiment": "TP_TRANSPORTER: inhibition of Digoxin uptake in OATP4C1-expressing MDCK cells", "format": "functional, cell-based"}, "[2]": {"target": "T1, Solute carrier organic anion transporter family member 4C1", "experiment": "TP_TRANSPORTER: inhibition of Triiodothyronine uptake in OATP4C1-expressing MDCK cells", "format": "functional, cell-based"}, "[3]": {"substrate": "N[C@@H](Cc1cc(I)c(Oc2ccc(O)c(I)c2)c(I)c1)C(=O)O", "experiment": "cells, lysate or membranes named", "description": "(§1) TP_TRANSPORTER: cell accumulation in OATP4C1-expressing MDCK cells"}, "[4]": {"substrate": "C[C@H]1O[C@@H](O[C@H]2[C@@H](O)C[C@H](O[C@H]3[C@@H](O)C[C@H](O[C@H]4CC[C@@]5(C)[C@H](CC[C@@H]6[C@@H]5C[C@@H](O)[C@]5(C)[C@@H](C7=CC(=O)OC7)CC[C@]65O)C4)O[C@@H]3C)O[C@@H]2C)C[C@H](O)[C@@H]1O", "experiment": "cells, lysate or membranes named", "description": "as §1"}}, "data": [{"molecule": "C[C@H]1O[C@@H](O[C@H]2[C@@H](O)C[C@H](O[C@H]3[C@@H](O)C[C@H](O[C@H]4CC[C@@]5(C)[C@H](CC[C@@H]6[C@@H]5CC[C@]5(C)[C@@H](C7=CC(=O)OC7)CC[C@]65O)C4)O[C@@H]3C)O[C@@H]2C)C[C@H](O)[C@@H]1O", "note": "[DIGITOXIN]", "values": [{"measurement": "IC50", "setting": "[1]", "value": 120, "unit": "nM"}]}, {"molecule": "N[C@@H](Cc1cc(I)c(Oc2cc(I)c(O)c(I)c2)c(I)c1)C(=O)O", "note": "[LEVOTHYROXINE]", "values": [{"measurement": "IC50", "setting": "[2]", "value": 8000, "unit": "nM"}]}, {"molecule": "C[C@]12CC[C@H](O)C[C@H]1CC[C@@H]1[C@@H]2C[C@@H](O)[C@]2(C)[C@@H](C3=CC(=O)OC3)CC[C@]12O", "note": "[DIGOXIGENIN]", "values": [{"measurement": "IC50", "setting": "[1]", "value": 490, "unit": "nM"}]}, {"molecule": "B1", "values": [{"measurement": "Km", "setting": "[3]", "value": 5.9, "unit": "µM"}, {"measurement": "Km", "setting": "[4]", "value": 7.8, "unit": "µM"}]}]}
